Test systems include CCRF-CEM; SK-OV-3; RPMI-8226; SF-268; M14; SF-295; SK-MEL-2; EKVX; CAKI-1; ACHN; Hs-578T; K562; SK-MEL-28; SK-MEL-5; MDA-MB-435; SR; NCI-H522; 786-0; LOX IMVI.
What all share (test): NCI anticancer screen, dose series, 48 h

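Test compounds were applied to cells in 96-well plates for 48 hours at 5 doses. GI50 = concentration required for 50% inhibition of growth.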 Activity calls are given as the source filed them. Cut-off read from the data, not from the text of the source: active = GI50 up to about 1.1 µM and inactive = higher.

Regarding `O=C(CC(O)(C(F)(F)F)C(F)(F)F)c1cc(CC(=O)C(O)(C(F)(F)F)C(F)(F)F)cc(CC(=O)C(O)(C(F)(F)F)C(F)(F)F)c1`, the GI50 was > 10 µM (inactive) in the assay with CCRF-CEM; 2.14 µM (inactive) in the assay on SK-OV-3; > 10 µM (inactive) with RPMI-8226; 2.67 µM (inactive) with SF-268; 2.58 µM (inactive) with M14; 1.05 µM (active) with SF-295. Also, the GI50 in the assay on SK-MEL-2 is 1.75 µM (inactive); in the assay with EKVX it was 2.24 µM (inactive); with CAKI-1, 1.75 µM (inactive); in the assay on ACHN, 0.802 µM (active); with Hs-578T it was 2.05 µM (inactive); in the assay on K562, > 10 µM (inactive). Also, the GI50 in the assay on SK-MEL-28 is 1.64 µM (inactive); with SK-MEL-5 it was 1.57 µM (inactive); in the assay on MDA-MB-435 it was 1 µM (active); in the assay on SR, 6.78 µM (inactive); in the assay with NCI-H522, 1.14 µM (inactive); in the assay on 786-0, 1.79 µM (inactive). Also, in the assay on LOX IMVI, the GI50 is 1.14 µM (inactive).

Regarding `COC(=O)/C=C1/OC(c2ccc(Br)cc2)=C(Br)C1=O`, the GI50 in the assay with CCRF-CEM is 1.82 µM (inactive); in the assay with SK-OV-3 it was 19.9 µM (inactive); with RPMI-8226, 2.26 µM (inactive); in the assay with SF-268, 6.93 µM (inactive); with M14, 4.93 µM (inactive); in the assay on SF-295 it was 14.1 µM (inactive). Further, the GI50 was 10.6 µM (inactive) in the assay on SK-MEL-2; 13.2 µM (inactive) with EKVX; 2.33 µM (inactive) with CAKI-1; 7.23 µM (inactive) with ACHN; 8.38 µM (inactive) with Hs-578T; 2.47 µM (inactive) with K562. Moreover, the GI50 in the assay on SK-MEL-28 is 12 µM (inactive); with SK-MEL-5, 7.48 µM (inactive); in the assay on MDA-MB-435, 7.67 µM (inactive); in the assay on SR, 0.179 µM (active); with NCI-H522, 3.94 µM (inactive); in the assay with 786-0, 2.4 µM (inactive). Moreover, the GI50 in the assay with LOX IMVI is 3.84 µM (inactive).

Regarding `COc1ccccc1C1C2=C(COC2=O)OC(C)(C)Oc2cc3c(cc21)OCO3` (stereo not given), the GI50 was 4.06 µM (inactive) in the assay with CCRF-CEM; 4 µM (inactive) in the assay with SK-OV-3; 4.03 µM (inactive) with RPMI-8226; 7.4 µM (inactive) in the assay on SF-268; 3.18 µM (inactive) with M14; 2.67 µM (inactive) in the assay on SF-295. Moreover, the GI50 in the assay on SK-MEL-2 is 4.06 µM (inactive); with EKVX, 3.56 µM (inactive); with CAKI-1 it was 3.33 µM (inactive); in the assay with ACHN it was 7.91 µM (inactive); in the assay on Hs-578T it was 4.6 µM (inactive); in the assay with K562 it was 1.34 µM (inactive). In addition, the GI50 is 7.28 µM (inactive) in the assay with SK-MEL-28; 3.36 µM (inactive) with SK-MEL-5; 0.564 µM (active) in the assay on MDA-MB-435; 3.44 µM (inactive) in the assay with SR; 1.99 µM (inactive) in the assay on NCI-H522; 3.83 µM (inactive) in the assay on 786-0. Further, the GI50 in the assay on LOX IMVI was 5.16 µM (inactive).

`CCOC(=O)c1c(Sc2ccc([N+](=O)[O-])cc2[N+](=O)[O-])nc2c3ccccc3ccn12`: the GI50 in the assay on CCRF-CEM was 40.7 µM (inactive); in the assay with SK-OV-3, 15.9 µM (inactive); with RPMI-8226, 36.3 µM (inactive); in the assay on SF-268, 28.6 µM (inactive); with M14 it was > 100 µM (inactive); in the assay on SF-295 it was 28.7 µM (inactive). Besides, the GI50 with SK-MEL-2 is > 100 µM (inactive); with EKVX, > 100 µM (inactive); in the assay on CAKI-1, 15.6 µM (inactive); in the assay with ACHN it was 19.3 µM (inactive); in the assay with Hs-578T, 13.8 µM (inactive); with K562, > 100 µM (inactive). Moreover, the GI50 in the assay on SK-MEL-28 was > 100 µM (inactive); in the assay with SK-MEL-5, 80.2 µM (inactive); in the assay on MDA-MB-435, > 100 µM (inactive); with SR, > 100 µM (inactive); in the assay with NCI-H522, 41.7 µM (inactive); in the assay with 786-0, 5.6 µM (inactive). The GI50 in the assay with LOX IMVI is > 100 µM (inactive).

Consider `O=C1CCC[C@@H]2NC[C@@H](c3ccc4c(c3)OCO4)[C@H]12`, for which the GI50 with CCRF-CEM, with SK-OV-3, in the assay with RPMI-8226, with SF-268, with M14 and in the assay with SF-295 was > 25 µM (inactive) throughout. Moreover, the GI50 in the assay on SK-MEL-2, in the assay on EKVX, with CAKI-1, in the assay on ACHN, with Hs-578T and in the assay with K562 was > 25 µM (inactive) throughout. Besides, the GI50 with SK-MEL-28, in the assay with SK-MEL-5, in the assay on MDA-MB-435, with SR, with NCI-H522 and in the assay with 786-0 was > 25 µM (inactive) throughout. Moreover, in the assay on LOX IMVI, the GI50 was > 25 µM (inactive).

`O=C(/C=C/c1ccc(Cl)cc1)c1ccccc(=O)c1O`: the GI50 is 0.255 µM (active) in the assay with CCRF-CEM; 3.56 µM (inactive) in the assay on SK-OV-3; 1.07 µM (active) in the assay with RPMI-8226; 3.12 µM (inactive) in the assay with SF-268; 2.87 µM (inactive) in the assay with M14; 1.22 µM (inactive) in the assay with SF-295. The GI50 with SK-MEL-2 was 1.75 µM (inactive); with EKVX it was 1.93 µM (inactive); in the assay on CAKI-1, 0.614 µM (active); in the assay on ACHN it was 0.881 µM (active); in the assay with Hs-578T, 4.99 µM (inactive); in the assay with K562, 1.17 µM (inactive). Further, the GI50 in the assay with SK-MEL-28 was 3.43 µM (inactive); with SK-MEL-5 it was 0.621 µM (active); in the assay with MDA-MB-435, 0.977 µM (active); in the assay on SR it was 0.238 µM (active); with NCI-H522 it was 5.42 µM (inactive); in the assay with 786-0 it was 1.18 µM (inactive). In addition, the GI50 with LOX IMVI is 1.29 µM (inactive).

Turning to `Oc1ccc2ccccc2c1/N=N/c1ccc(Br)cc1`, the GI50 with CCRF-CEM was > 100 µM (inactive); with SK-OV-3 it was 17.4 µM (inactive); in the assay with RPMI-8226 it was > 100 µM (inactive); with SF-268, 23.6 µM (inactive); in the assay with M14 it was 87.5 µM (inactive); in the assay with SF-295, 28.9 µM (inactive). In addition, the GI50 in the assay with SK-MEL-2 was > 100 µM (inactive); in the assay on EKVX it was 36.2 µM (inactive); with CAKI-1, > 100 µM (inactive); in the assay with ACHN, 89.1 µM (inactive); in the assay with Hs-578T, 24.7 µM (inactive); with K562, > 100 µM (inactive). The GI50 with SK-MEL-28, with SK-MEL-5, in the assay on MDA-MB-435, in the assay on SR, in the assay with NCI-H522 and in the assay on 786-0 was > 100 µM (inactive) throughout. The GI50 in the assay with LOX IMVI is > 100 µM (inactive).

Regarding `COc1ccc2c(c1)-c1nc(=O)n(CCCN(C)C)c3ccc([N+](=O)[O-])c(c13)N2`, the GI50 in the assay with CCRF-CEM is 0.117 µM (active); in the assay with SK-OV-3 it was 1.29 µM (inactive); in the assay on RPMI-8226, 0.231 µM (active); in the assay with SF-268, 0.789 µM (active); with M14 it was 1.08 µM (active); in the assay with SF-295, 0.791 µM (active). Also, the GI50 was 12.2 µM (inactive) in the assay with SK-MEL-2; 0.711 µM (active) in the assay with EKVX; 0.434 µM (active) in the assay on CAKI-1; 0.485 µM (active) in the assay with ACHN; 1.56 µM (inactive) with Hs-578T; 0.0811 µM (active) with K562. For the same molecule, the GI50 is 1.19 µM (inactive) with SK-MEL-28; 0.875 µM (active) in the assay on SK-MEL-5; 2.6 µM (inactive) in the assay with MDA-MB-435; 0.406 µM (active) with SR; 0.368 µM (active) in the assay with NCI-H522; 0.466 µM (active) in the assay on 786-0. Moreover, in the assay on LOX IMVI, the GI50 is 0.838 µM (active).

On to `CCN(CC)CCCNc1ccc([N+](=O)[O-])c2nc3ccc(OC)cc3c(N)c12`, for which the GI50 was 1.34 µM (inactive) with CCRF-CEM; > 3.92 µM (inactive) with SK-OV-3; 2 µM (inactive) in the assay with RPMI-8226; 1.71 µM (inactive) with SF-268; > 4.41 µM (inactive) in the assay with M14; 1.82 µM (inactive) in the assay on SF-295. Also, the GI50 is > 9.33 µM (inactive) in the assay with SK-MEL-2; > 10 µM (inactive) with EKVX; > 10 µM (inactive) in the assay on CAKI-1; > 6.67 µM (inactive) in the assay on ACHN; 1.2 µM (inactive) in the assay with Hs-578T; 2.1 µM (inactive) in the assay on K562. Further, the GI50 in the assay with SK-MEL-28 is > 10 µM (inactive); in the assay on SK-MEL-5, > 5.16 µM (inactive); in the assay with MDA-MB-435 it was 1.62 µM (inactive); in the assay with SR, 1.51 µM (inactive); in the assay on NCI-H522, 2.82 µM (inactive); in the assay with 786-0, 1.44 µM (inactive). For the same molecule, the GI50 with LOX IMVI was 1.7 µM (inactive).

`CS(=O)(=O)OCCN(CCOS(C)(=O)=O)c1ccc(/C=N/c2ccc(-c3csc(Cc4ccccc4)n3)cc2)c(Cl)c1`: the GI50 is 10.1 µM (inactive) in the assay on CCRF-CEM; 43.5 µM (inactive) with SK-OV-3; 23.8 µM (inactive) in the assay on RPMI-8226; 27.4 µM (inactive) with SF-268; 25.3 µM (inactive) with M14; 30.2 µM (inactive) in the assay with SF-295. The GI50 in the assay with SK-MEL-2 is > 46 µM (inactive); in the assay with EKVX it was 36.5 µM (inactive); with CAKI-1, 1.23 µM (inactive); in the assay with ACHN, 30.7 µM (inactive); in the assay on Hs-578T it was 28.4 µM (inactive); in the assay on K562 it was 12.5 µM (inactive). Moreover, the GI50 with SK-MEL-28 is 45.1 µM (inactive); with SK-MEL-5, 16.4 µM (inactive); in the assay with MDA-MB-435 it was 21 µM (inactive); with SR, 23.7 µM (inactive); in the assay with NCI-H522, > 43.4 µM (inactive); in the assay on 786-0, 23 µM (inactive). Moreover, the GI50 with LOX IMVI was 20.1 µM (inactive).

For the origin of these results see ChEMBL document CHEMBL1201862, “PubChem BioAssay data set” (2004).
